Where two headings read alike, the source gives them in different places.
Assays:
Myzus persicae = test: Myzus test (spray treatment); format: in vivo; conditions: Aufwandmenge 500 g/ha, Chinakohlblattscheiben (Brassica pekinensis) sprayed, 100 % = all aphids killed, read-out: Wirkung
From the text: Myzus-Test (Spritzbehandlung)
Zur Herstellung einer zweckmäßigen Wirkstoffzubereitung vermischt man 1 Gewichtsteil Wirkstoff mit den angegebenen Mengen Lösungsmittel und Emulgator und verdünnt das Konzentrat mit emulgatorhaltigem Wasser auf die gewünschte Konzentration.
Chinakohlblattscheiben (Brassica pekinensis), die von allen Stadien der Grünen Pfirsichblattlaus (Myzus persicae) befallen sind, werden mit einer Wirkstoffzubereitung der gewünschten Konzentration gespritzt.
Nach der gewünschten Zeit wird die Wirkung in % bestimmt. Dabei bedeutet 100 %, dass alle Blattläuse abgetötet wurden; 0 % bedeutet, dass keine Blattläuse abgetötet wurden.

[1] = logP determination (acidic, HCOOH); format: physicochemical
Boophilus microplus = Boophilus microplus test (BOOPMI injection); format: in vivo; conditions: Aufwandmenge 20 µg/Tier; injected into the abdomen; 100 % = no tick laid fertile eggs
From the text: Boophilus microplus -Test (BOOPMI Injektion)
Lösungsmittel: Dimethylsulfoxid
Zur Herstellung einer zweckmäßigen Wirkstoffzubereitung vermischt man 1 Gewichtsteil Wirkstoff mit der angegebenen Menge Lösungsmittel und verdünnt das Konzentrat mit Lösungsmittel auf die gewünschte Konzentration.
Die Wirkstofflösung wird in das Abdomen (Boophilus microplus) injiziert, die Tiere werden in Schalen überführt und in einem klimatisierten Raum aufbewahrt.
Nach der gewünschten Zeit wird die Wirkung in % bestimmt. Dabei bedeutet 100%, dass keine Zecke fertile Eier gelegt hat.

[2] = hcooh, read-out: Phys. Daten = logP (HCOOH)
[3] = acidic (HCOOH), read-out: Phys. Daten = logP (HCOOH)

| logP [1, 2] | logP ([1]; sauer, read-out: logP (sauer)) | logP [1, 3] | Compound | mortality at 500 g/ha (Myzus persicae) | Wirkung (Boophilus microplus) |
| --- | --- | --- | --- | --- | --- |
| 1.7 |  |  | OCCNC(=S)NC1CCCc2sccc21 (stereo not shown) [II-3] | ≥ 80% |  |
| 1.3 |  |  | C[C@H](NC(=S)NCCO)c1cccs1 [II-74] |  |  |
| 1.47 | 1.47 |  | OCCNC(=S)NC1CCc2ccsc21 (stereo not shown) [II-1, (5,6-dihydro-4H-cyclopenta[b]thiophen-6-yl)-3-(2-hydroxyethyl)thiourea] | ≥ 80% |  |
|  | 1.23 | 1.23 | CC(C)c1cs/c(=N\C2CCCc3occc32)n1CCO (stereo not shown) [I-2] | ≥ 80% |  |
| 1.4 | 1.4 |  | OCCNC(=S)NC1CCCc2occc21 (stereo not shown) [II-2, 1-(2-hydroxyethyl)-3-(4,5,6,7-tetrahydro-1-benzofuran-4-yl)thiourea] | ≥ 80% |  |
|  | 1.19 | 1.19 | CC(C)c1cs/c(=N\C2CCc3ccsc32)n1CCO (stereo not shown) [I-1, 2-[(2Z)-2-(5,6-dihydro-4H-cyclopenta[b]thiophen-6-ylimino)-4-(1-methylethyl)-1,3-thiazol-3(2H)-yl]ethanol] | ≥ 80% | ≥ 80% |

— patent EP2060571A1, “Insecticide iminoheterocycles” (Bayer CropScience AG, priority 2007, dated 2009)
